Literature values in patent US8754089B2, “Heterocyclic compounds and their uses” (Amgen Inc., priority 2009, dated 2014).

Key:
[1] = in vivo; cited from earlier work
[2] = in vivo; cited from earlier work; remark: listed apart in the source
[3] = ovalbumin-induced airway inflammation; cited from earlier work
protein kinases = details: cited from earlier work
p110δ = p110δ (Homo sapiens (Human), UniProt O00329); details: cited from earlier work
neutrophil [4] = details: cited from earlier work
neutrophil [5] = details: cited from earlier work; remark: listed apart in the source

Sequence of p110δ (O00329 whole entry, looked up, species assumed): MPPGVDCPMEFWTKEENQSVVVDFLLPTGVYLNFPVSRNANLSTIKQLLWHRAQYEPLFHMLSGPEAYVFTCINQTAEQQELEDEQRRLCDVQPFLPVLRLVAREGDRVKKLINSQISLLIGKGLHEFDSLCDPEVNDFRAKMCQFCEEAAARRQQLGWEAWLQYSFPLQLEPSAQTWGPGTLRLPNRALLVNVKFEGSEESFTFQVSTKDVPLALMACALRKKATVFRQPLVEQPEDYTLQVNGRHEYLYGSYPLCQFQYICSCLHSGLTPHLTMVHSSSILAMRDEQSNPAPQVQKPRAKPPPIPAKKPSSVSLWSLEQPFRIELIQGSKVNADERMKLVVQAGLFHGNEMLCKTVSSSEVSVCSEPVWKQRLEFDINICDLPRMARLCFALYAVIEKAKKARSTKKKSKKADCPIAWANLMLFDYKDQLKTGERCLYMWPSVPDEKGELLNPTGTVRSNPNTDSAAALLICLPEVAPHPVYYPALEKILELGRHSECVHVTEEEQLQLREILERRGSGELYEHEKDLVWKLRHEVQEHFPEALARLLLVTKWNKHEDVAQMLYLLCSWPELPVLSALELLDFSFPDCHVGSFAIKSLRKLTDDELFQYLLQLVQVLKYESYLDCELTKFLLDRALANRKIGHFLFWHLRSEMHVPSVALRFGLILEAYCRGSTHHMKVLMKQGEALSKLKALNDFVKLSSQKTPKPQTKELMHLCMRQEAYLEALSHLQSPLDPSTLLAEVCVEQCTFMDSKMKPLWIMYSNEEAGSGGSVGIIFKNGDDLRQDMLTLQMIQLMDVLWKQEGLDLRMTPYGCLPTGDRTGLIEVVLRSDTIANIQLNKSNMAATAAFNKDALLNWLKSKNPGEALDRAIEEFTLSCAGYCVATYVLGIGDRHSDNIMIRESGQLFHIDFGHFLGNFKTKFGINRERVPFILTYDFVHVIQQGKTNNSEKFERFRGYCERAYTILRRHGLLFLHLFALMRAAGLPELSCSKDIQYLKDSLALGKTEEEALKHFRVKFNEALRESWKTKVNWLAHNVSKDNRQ
Sequence of p110δ (P27986 whole entry partner, looked up, species assumed): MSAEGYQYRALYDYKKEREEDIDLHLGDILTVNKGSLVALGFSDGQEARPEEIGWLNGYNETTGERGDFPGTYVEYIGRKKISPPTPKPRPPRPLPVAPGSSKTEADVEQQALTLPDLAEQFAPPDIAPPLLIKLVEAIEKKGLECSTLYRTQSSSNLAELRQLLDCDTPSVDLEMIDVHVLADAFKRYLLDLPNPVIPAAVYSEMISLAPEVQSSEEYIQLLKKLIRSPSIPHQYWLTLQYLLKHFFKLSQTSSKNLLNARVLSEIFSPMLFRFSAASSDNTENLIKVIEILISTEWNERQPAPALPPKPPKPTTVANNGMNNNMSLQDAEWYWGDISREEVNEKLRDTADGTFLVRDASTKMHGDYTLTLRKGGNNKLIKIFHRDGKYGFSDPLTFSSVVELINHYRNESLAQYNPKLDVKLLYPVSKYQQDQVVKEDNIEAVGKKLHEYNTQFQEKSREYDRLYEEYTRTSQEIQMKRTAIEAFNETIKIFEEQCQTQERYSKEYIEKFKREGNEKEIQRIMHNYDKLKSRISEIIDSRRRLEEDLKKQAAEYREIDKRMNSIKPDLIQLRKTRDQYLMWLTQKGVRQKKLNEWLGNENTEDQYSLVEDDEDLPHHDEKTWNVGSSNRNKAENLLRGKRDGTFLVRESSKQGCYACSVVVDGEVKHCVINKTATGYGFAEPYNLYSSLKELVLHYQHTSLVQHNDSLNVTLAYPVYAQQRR

In the case of `O=C1NC(=O)/C(=C\c2ccc3nccnc3c2)S1` [AS 605240], the “onset of disease in a model of systemic lupus erythematosis” value [1] is given as “delay onset of disease” and the “efficacy in a mouse model of rheumatoid arthritis” value [2] is given as “efficacious”.
For `Cc1ccccc1-n1c(Cn2cnc3c(N)ncnc32)nc2cccc(C)c2c1=O` [IC87114], the “inflammation and disease in a murine model of asthma” value [3] is listed as “significantly ameliorate inflammation and disease”, the “activity against any protein kinases tested” value (protein kinases) is listed as “no activity” and the “inhibition of p110δ” value (p110δ) is listed as “high nanomolar range (triple digit)”.
In the case of `O=c1cc(N2CCOCC2)oc2c(-c3ccccc3)cccc12` [LY294002], the neutrophil migration (neutrophil [4]) is given as “block” and the superoxide release (neutrophil [5]) is given as “block”.
In the case of `COC[C@H]1OC(=O)c2coc3c2[C@@]1(C)C1=C(C3=O)[C@@H]2CCC(=O)[C@@]2(C)C[C@H]1OC(C)=O` [wortmannin], the neutrophil migration (neutrophil [4]) is given as “block” and the superoxide release (neutrophil [5]) is given as “block”.
